Experimental data from PubChem BioAssay (NCI).
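Protocol summary: plate cells (96-well), add compound at 5 concentrations, incubate 48 h, interpolate endpoints linearly. The concentration for full growth arrest is given as TGI.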

Assays:
Assay in all cases: NCI anticancer screen, dose series, 48 h
A498 renal = test system: A498 renal
EKVX NSCLC = test system: EKVX NSCLC
KM12 colon = test system: KM12 colon
MALME-3M melanoma = test system: MALME-3M melanoma
MDA-N = test system: MDA-N
OVCAR-4 ovarian = test system: OVCAR-4 ovarian
PC-3 prostate = test system: PC-3 prostate
RXF 393 renal = test system: RXF 393 renal
SK-MEL-2 melanoma = test system: SK-MEL-2 melanoma
SNB-75 CNS = test system: SNB-75 CNS

Row | SMILES | TGI (A498 renal) [µM] | TGI (EKVX NSCLC) [µM] | TGI (KM12 colon) [µM] | TGI (MALME-3M melanoma) [µM] | TGI (MDA-N) [µM] | TGI (OVCAR-4 ovarian) [µM] | TGI (PC-3 prostate) [µM] | TGI (RXF 393 renal) [µM] | TGI (SK-MEL-2 melanoma) [µM] | TGI (SNB-75 CNS) [µM]
1 | CC(C)(CO[C@H]1C[C@H]2CC[C@@]1(C)C2(C)C)[N+](=O)[O-] | 51.8 | 46.2 | 32.4 | 40.3 | 29.4 | 76 | 54.4 | 26.1 | 31.3 | 45.1
2 | Nc1[nH]c(=O)nc2c1ncn2C1OC(CO)C(O)C1O (stereo not drawn) | > 100 | > 100 | > 100 | > 100 | > 100 | > 100 | 60.2 | > 100 | > 100 | 20.6
3 | Cc1c(C)c2c(c(N)c1C#N)C(=O)N(N)C2=O | > 100 | > 100 | > 100 | > 100 | > 100 | > 100 | > 100 | > 100 | > 100 | > 100
4 | C/C(=N\Nc1nc2ccccc2s1)c1ccncn1 | > 100 | 10.2 | 16.6 | 20.3 | > 100 | 42.4 | > 43 | 24.7 | 31.8 | 24.4
5 | Cc1ccccc1NC(=O)O/N=C(\Cl)C(C)C | 36.4 | 4.94 | 36.2 | 5.73 | 8.58 | 23.2 | 31 | 25.1 | 32.6 | 32.1
6 | COc1cc2c(cc1O)C1Cc3ccc(OC)c(O)c3C[N+]1(C)CC2 (stereo not drawn) | > 100 | > 100 | > 100 | > 100 | > 100 | > 100 | > 100 | > 100 | > 100 | > 100
7 | N#CCCC(C=O)(CCC#N)CCC#N | > 100 | > 100 | > 100 | > 100 | > 100 | > 100 | > 100 | > 100 | > 100 | > 100
8 | CCOC(=O)c1c(N)sc2c1C(C(=O)OCC)CCCC2 (stereo not drawn) | 75.8 | > 100 | > 100 | > 100 | > 100 |  | > 100 | > 100 | > 100 | > 100
9 | O=C1[C@@H]2[C@@H](CN3CN(c4ccccc4)N=C(c4ccccc4)[C@@]23c2ccccc2)C(=O)N1c1ccccc1 | 36.6 | 11 | > 75.5 | 3.57 | 20.1 | > 23.8 | 27.1 | 9.65 | 40.3 | 34.9
10 | COC1(CC[C@@H](C)COC2OC(CO)C(O)C(O)C2O)OC2C[C@H]3[C@@H]4CC[C@H]5C[C@@H](OC6OC(CO)C(OC7OC(CO)C(O)C(O)C7O)C(O)C6OC6OC(C)C(O)C(O)C6O)[C@H](O)C[C@]5(C)[C@H]4CC[C@]3(C)C2[C@@H]1C (stereo partly drawn) | 3.38 | 4.52 | 5.02 | 3.33 | 4.55 | 3.96 | 3.45 | 3.85 | 3.9 | 3.49
11 | COc1cc2c(cc1OC)C(=O)N(c1ccc(OCCN3CCCC3)cc1)C2 | > 100 | > 100 | > 100 | > 100 | > 100 | > 100 | > 100 | > 100 | > 100 | 
12 | CN1CCN(C(=O)c2cn(Cc3cncn3Cc3ccc4c(c3)OCO4)cc2-c2cccc3ccccc23)CC1 | 32.1 | > 100 | > 58.3 | 26.6 | > 100 | > 100 | > 86.3 | > 100 | 20.8 | 67.9
13 | NC(=O)[C@H](Cc1ccc(O)cc1)Nc1c(O)c2c(c(O)c1Cl)C(=O)C=CC2=O | > 10 | > 10 | > 6.81 | 3.78 | 4.1 | 3.41 | 5.85 | 9.56 | > 10 | > 10
14 | COC(=O)c1c2c(cc3c1CC1(Cc4cc5c(c(C=O)c4C1)CCC5)C3)CCC2 (stereo not drawn) | > 100 | > 100 |  | 61.7 | > 100 | > 100 | > 100 | > 100 | 72 | > 100
15 | N#Cc1c(NC(=S)Nc2ccc(Cl)cc2)sc2c1CCN(N1CCc3c(sc(NC(=S)Nc4ccc(Cl)cc4)c3C#N)C1)C2 | 36.9 | > 100 | > 100 | > 100 | > 100 | > 100 | > 100 | 78.3 | 50.2 | > 100
16 | COc1cc(CCNC2=CC(=O)c3nc[nH]c3C2=O)ccc1O | 71 | 47.4 | 82.2 | 26.1 | 32.5 | 29 | > 100 | > 100 | 52.1 | 40.4
17 | Nc1c(C(=O)c2ccc(Cl)c(Cl)c2)[nH]c(NCc2ccccc2)c1C(=S)Nc1ccccc1 | 31.5 | 29.6 | 10.5 | 11.7 | 14.5 | 15.8 | 30.5 | 27.3 | 25.9 | 24.1

Row | SMILES | TGI (A498 renal) [µM] | TGI (EKVX NSCLC) [µM] | TGI (KM12 colon) [µM] | TGI (MALME-3M melanoma) [µM] | TGI (MDA-N) [µM] | TGI (OVCAR-4 ovarian) [µM] | TGI (PC-3 prostate) [µM] | TGI (RXF 393 renal) [µM] | TGI (SK-MEL-2 melanoma) [µM] | TGI (SNB-75 CNS) [µM]
18 | C=C(Br)CN=CN(C)C | > 100 | > 100 |  | > 100 | > 100 | > 100 | > 100 | > 100 | > 100 | > 100
19 | CCOC(=O)c1cc(-c2ccc(OC)cc2)c([N+](=O)[O-])[nH]1 | > 10 | > 10 | > 10 | > 10 | > 3.16 | > 10 | > 10 | > 10 | > 10 | > 10
20 | Clc1ccc2c(c1)N(CCCN1CCCC13CCCCC3)c1ccccc1S2 | 33.2 | > 44 | 27.7 | 28.1 | 26.2 | 41.7 | 20.6 | 17.6 | 22.1 | 
21 | O=CCCCCCOCc1ccccc1 | > 100 | > 100 | > 100 | > 100 | > 100 | > 100 | > 100 | > 100 | > 100 | > 100
22 | FC1=C2C3CCC(C3)C2C1(F)F (stereo not drawn) | > 100 | > 100 | > 100 | > 100 | > 100 | > 100 | > 100 | > 100 | > 100 | > 100
23 | Oc1ccc(C(O)C2CCCCN2)cc1O (stereo not drawn) | > 100 | > 100 | > 100 | > 100 | > 100 | > 100 | > 100 | > 100 | > 100 | > 100
24 | COC(=O)c1sc(=O)sc1SCc1cccc(CSc2sc(=O)sc2C(=O)OC)c1 | > 100 | > 100 | > 100 | 49.5 | > 100 | 37.7 | > 100 | 73.2 | > 100 | 
25 | CC(=O)CC1(CBr)Nc2ccc([N+](=O)[O-])cc2NC1=O (stereo not drawn) | > 100 | > 100 | > 100 | > 100 | > 100 | > 100 | > 100 | > 100 | > 100 | > 100
26 | COP(=O)(OC)OCN(C)CC/C=C(\C)CC/C=C(\C)CCC=C(C)C | > 100 | 63.3 | 30 | 28.2 | 29.3 | > 100 | 21.2 | 49.1 | 28.2 | 28
27 | Clc1ccc2c(NCCCCCCNc3ccnc4cc(Cl)ccc34)ccnc2c1 | 42.3 | 25.9 | 7.88 | 32.6 | 8.86 | 5.93 | 18.1 | 6.35 | 12.7 | 8.61
28 | COc1cccc2c1C(=O)c1c(O)c3c(c(O)c1C2=O)C[C@@](O)(C(C)=O)CC3OC1CC(OC2CC(N)C(O)C(C)O2)C(O)C(C)O1 (stereo partly drawn) | > 100 | > 100 | > 100 | > 100 | > 100 | > 100 | > 100 | > 100 | > 100 | 85.7
29 | Cn1/c(=N\N=C2\C=C3CCCCC3(C)CC2)sc2ccccc21 (stereo not drawn) | > 100 | > 100 | > 100 | > 100 | > 100 | > 100 | > 100 | > 100 | > 100 | > 100
30 | CC(C)(C)C1CCC2c3c([nH]c4ccccc34)C3C(=O)N(c4ccc([N+](=O)[O-])cc4)C(=O)C3C2C1 (stereo not drawn) | 79.4 | > 100 | 35.7 | 43.7 | > 100 | 71.9 | > 100 | 23.6 | 29.3 | 38.4
31 | CCN1CC2(C)CCC(OC)C34C5CC6CCC(O)(C5C(=O)O6)C(C(O)C23)C14 (stereo not drawn) | > 100 | > 100 | > 100 | > 100 | > 100 | > 100 | > 100 | > 100 | > 100 | > 100
32 | CC(Nc1ccc(Cl)cc1)c1ccncc1 (stereo not drawn) | > 100 | > 100 | > 100 | > 100 | > 100 | > 100 | > 100 | > 100 | > 100 | > 100
33 | ClC1=NN=C(c2c[nH]c3ccccc23)CC1NCc1ccccc1 (stereo not drawn) | > 100 | > 100 | > 100 | > 100 | > 100 |  | > 100 | > 100 | > 100 | > 100
34 | CC(=O)NC1C(OCc2ccccc2)OC(CO)C(O)C1OC(C)C(=O)N[C@@H](C)C(=O)N[C@H](CCC(=O)NCCNCCNc1c2ccccc2nc2cccc([N+](=O)[O-])c12)C(N)=O (stereo partly drawn) | 0.32 | 2.74 | 0.352 | 0.221 | 0.305 | 0.0817 | 0.891 | 0.0844 | 0.138 | 0.883
